This note sets out measurements from patent publication US10760052B2, “Method of inhibiting tau phosphorylation” (priority 2012, dated 2020).

In experiment [1] the test system is α7nAChR (Aβ42-α7nAChR interaction). Put plainly: Aβ42 affinity for α7nAChR in biotinylated synaptic membranes from postmortem frontal cortices. It counts as binding, human. The text has this: FIG. 27 in two panels illustrates that Compound C0105 reduces affinity of the Aβ42-α7nAChR interaction. […] Data are means±SEM. n=11 for postmortem control tissue; n=6 for SK-N-MC cells.

The subject of a further experiment is FLNA-α7nAChR association. Kind of experiment: FLNA association with α7nAChR in organotypic frontocortical slice cultures. Particulars: 100 nM Aβ42, 16 hours, compound added simultaneously. It counts as cell-based, rat. The method, then:
Tissue was harvested and solubilized, and a specific antibody against FLNA was used to immunoprecipitate FLNA and associated proteins. The FLNA immunoprecipitate was size-fractionated using SDS-PAGE, transferred and probed with specific antibodies directed against each of the following receptors: α7nAChR, TLR4, IR and MOR.
Rat brain slice organotypic culture methods were modified from those published previously. [Adamchik et al., Brain Res Brain Res Protoc 5:153-158 (2000).] FCX slices ([…]) were transferred to sterile, porous Millicell-CM inserts (0.4 μm). Each culture insert unit contained two brain slices and was placed into individual wells of a 12-well culture tray in 2 ml medium: 50% MEM with Earl's salts, 2 mM L-glutamine, 25% Earl's balanced salt solution, 6.5 g/l D-glucose, 20% fetal bovine serum (FBS), 5% horse serum, 25 mM HEPES buffer, pH 7.2, and […]. […]
The level of FLNA-associated α7nAChRs was determined using a co-immunoprecipitation/Western blotting method as described previously. […] The levels of FLNA-associated α7nAChR, TLR4, IR and MOR were assessed by Western blotting using specific antibodies directed against the respective proteins and the blot stripped and re-probed for FLNA for immunoprecipitation/loading control.

Experiment [2] has as its system NMDAR. It counts as cell-based, rat. Particulars: slice cultures, 0.1 μM Aβ42.
Experiment [3] deals with voltage-gated Ca2+ channel mediated Ca2+ influx. It counts as cell-based, rat. Particulars: slice cultures.
The target of another experiment is T1, TLR4-FLNA complex (Mus musculus, UniProt Q8BTM8).
T1 construct: from tissue; host or cells: synaptosomes from prefrontal cortex and hippocampus of treated E129 mice
T1 sequence (Q8BTM8 2-2647, one chain of several): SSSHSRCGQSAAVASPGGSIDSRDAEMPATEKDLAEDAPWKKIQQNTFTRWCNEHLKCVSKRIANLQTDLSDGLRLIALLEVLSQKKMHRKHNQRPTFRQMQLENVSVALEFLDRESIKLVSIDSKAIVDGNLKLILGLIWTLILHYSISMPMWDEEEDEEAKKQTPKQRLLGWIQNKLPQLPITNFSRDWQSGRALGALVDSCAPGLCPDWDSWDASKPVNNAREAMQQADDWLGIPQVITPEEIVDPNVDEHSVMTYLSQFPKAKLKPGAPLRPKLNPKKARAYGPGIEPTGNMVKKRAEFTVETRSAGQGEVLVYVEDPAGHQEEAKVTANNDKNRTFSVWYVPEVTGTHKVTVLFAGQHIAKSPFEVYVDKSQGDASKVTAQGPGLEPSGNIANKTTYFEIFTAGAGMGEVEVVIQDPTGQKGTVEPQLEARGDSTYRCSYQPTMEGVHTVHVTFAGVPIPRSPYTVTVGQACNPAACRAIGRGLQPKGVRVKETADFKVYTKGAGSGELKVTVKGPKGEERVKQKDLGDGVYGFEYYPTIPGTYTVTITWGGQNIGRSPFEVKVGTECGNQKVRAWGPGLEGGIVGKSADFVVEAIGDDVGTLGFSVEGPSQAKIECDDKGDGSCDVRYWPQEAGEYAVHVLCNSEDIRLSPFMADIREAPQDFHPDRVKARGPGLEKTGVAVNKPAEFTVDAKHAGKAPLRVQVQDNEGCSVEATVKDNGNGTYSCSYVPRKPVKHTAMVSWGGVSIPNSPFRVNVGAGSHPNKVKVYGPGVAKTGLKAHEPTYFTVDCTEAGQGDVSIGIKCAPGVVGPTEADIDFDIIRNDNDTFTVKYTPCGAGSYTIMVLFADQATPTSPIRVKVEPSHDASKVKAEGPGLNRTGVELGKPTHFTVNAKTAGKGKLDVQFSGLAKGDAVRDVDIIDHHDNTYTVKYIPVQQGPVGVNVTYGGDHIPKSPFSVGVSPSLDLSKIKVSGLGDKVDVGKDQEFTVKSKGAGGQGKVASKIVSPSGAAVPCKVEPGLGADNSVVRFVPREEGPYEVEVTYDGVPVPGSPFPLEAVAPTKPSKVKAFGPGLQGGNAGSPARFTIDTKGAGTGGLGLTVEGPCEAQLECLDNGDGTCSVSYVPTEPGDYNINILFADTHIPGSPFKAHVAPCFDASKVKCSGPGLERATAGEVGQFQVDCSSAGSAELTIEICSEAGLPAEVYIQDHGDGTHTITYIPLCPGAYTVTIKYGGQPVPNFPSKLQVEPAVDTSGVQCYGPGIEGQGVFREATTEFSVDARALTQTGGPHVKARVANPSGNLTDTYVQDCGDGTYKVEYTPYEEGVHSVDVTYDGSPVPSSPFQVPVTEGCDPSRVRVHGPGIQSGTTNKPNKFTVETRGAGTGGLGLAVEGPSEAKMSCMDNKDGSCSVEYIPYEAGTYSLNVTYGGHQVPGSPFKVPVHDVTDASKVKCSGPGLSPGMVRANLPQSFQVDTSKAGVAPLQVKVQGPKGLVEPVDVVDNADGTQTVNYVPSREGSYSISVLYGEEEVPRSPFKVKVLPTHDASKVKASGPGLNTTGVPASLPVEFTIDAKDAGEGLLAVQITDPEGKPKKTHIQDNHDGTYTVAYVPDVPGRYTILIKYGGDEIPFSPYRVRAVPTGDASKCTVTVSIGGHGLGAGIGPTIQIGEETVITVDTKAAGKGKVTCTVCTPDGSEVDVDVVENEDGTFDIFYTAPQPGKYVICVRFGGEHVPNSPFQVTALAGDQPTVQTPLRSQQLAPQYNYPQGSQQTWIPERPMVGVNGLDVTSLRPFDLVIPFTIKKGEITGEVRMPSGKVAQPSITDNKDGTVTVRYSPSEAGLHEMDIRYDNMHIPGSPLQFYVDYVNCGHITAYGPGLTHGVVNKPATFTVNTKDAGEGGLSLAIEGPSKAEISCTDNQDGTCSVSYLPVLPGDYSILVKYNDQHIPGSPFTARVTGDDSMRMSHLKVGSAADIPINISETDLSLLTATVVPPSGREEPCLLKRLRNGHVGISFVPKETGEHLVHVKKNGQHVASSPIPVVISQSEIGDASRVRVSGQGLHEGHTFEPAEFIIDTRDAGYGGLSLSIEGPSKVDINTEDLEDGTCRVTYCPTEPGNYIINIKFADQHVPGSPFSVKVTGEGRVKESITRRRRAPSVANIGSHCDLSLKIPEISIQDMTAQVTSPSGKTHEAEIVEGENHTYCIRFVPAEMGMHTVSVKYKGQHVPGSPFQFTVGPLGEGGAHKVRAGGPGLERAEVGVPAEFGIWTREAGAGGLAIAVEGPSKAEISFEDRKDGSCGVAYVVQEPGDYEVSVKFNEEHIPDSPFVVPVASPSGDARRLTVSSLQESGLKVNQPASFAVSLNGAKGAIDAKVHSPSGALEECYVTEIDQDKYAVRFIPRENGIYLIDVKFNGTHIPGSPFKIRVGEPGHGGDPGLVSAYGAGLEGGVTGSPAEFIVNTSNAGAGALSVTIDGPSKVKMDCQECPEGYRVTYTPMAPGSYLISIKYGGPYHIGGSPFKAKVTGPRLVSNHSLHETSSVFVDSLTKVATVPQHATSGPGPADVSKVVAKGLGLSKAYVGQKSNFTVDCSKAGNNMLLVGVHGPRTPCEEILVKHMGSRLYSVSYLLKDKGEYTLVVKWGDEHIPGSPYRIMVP
Kind of experiment: ICV Aβ42 infusion mouse model: FLNA association with TLR4. It counts as in vivo. Particulars: 10 mg/kg twice daily; prefrontal cortex and hippocampus. The procedure: . The anti-FLNA immunocomplexes were obtained by centrifugation, washed and dissociated using antigen elution buffer. […] The levels of FLNA-associated α7nAChRs and TLR4s were assessed by Western blotting and the blot stripped and re-probed for FLNA for immunoprecipitation/loading control.

For another experiment, the system named is α7nAChR. Particulars: mouse, in vivo.
The test system of experiment [4] is NMDAR. It counts as in vivo, mouse. Particulars: 10 mg/kg twice daily.
The next experiment has as its system NFT and Aβ42 aggregates. Kind of experiment: ICV Aβ42 infusion mouse model: immunohistochemistry of NFT and Aβ42 aggregates. Particulars: 10 mg/kg twice daily. In kind it is in vivo. The method, then:
One section was immunostained with anti-NFT or -PHF.
Brain tissues were fixed at 4° C. in 0.15 M phosphate-buffered 10% formalin, pH 7.4 for 2 weeks, paraffin embedded, serially sectioned at 5 μm, and processed for brightfield immunohistochemistry as described. The […] but not Aβ42-1. Specimens were examined using a Nikon FXA microscope with a Princeton Instruments CCD camera and recorded digitally.
The correlations between the amount of NFT/PHF immunoreactivity and Aβ42-positive material accumulated within mature neurons were also determined.

Experiment [5] deals with tau phosphorylated at S202, T231 and T181. Put plainly: Postmortem human frontal cortical synaptosomes: Aβ42-induced tau phosphorylation with VAKGL decoy. It counts as cell-based. Particulars: postmortem control frontocortical tissue. The method, then: FIG. 34 VAKGL (SEQ ID NO: 1) pentapeptide (10 μM) blocks Compound C0105's prevention of tau phosphorylation. Again using postmortem frontal cortical synaptosomes, the VAKGL pentapeptide blocks C0105's reduction in tau phosphorylation at all three phosphorylation sites found in neurofibrillary tangles. Western blots (FIG. 34A), in which numerals outside of and to the left of the blots are as discussed before, were analyzed by densitometric quantitation (FIG. 34B). Data are means±SEM. n=3. *p<0.01 vs. the respective basal level; # p<0.01 vs. Aβ42-exposed tissues.
In postmortem control frontocortical tissue, the FLNA pentapeptide binding site of Compound C0105 (VAKGL of SEQ ID NO: 1) was used as a decoy to block the attenuation of FLNA association with α7nAChR and TLR4 by Compound C0105 (FIG. 33).

Experiment [6] relates to tau (pSerine202, pThreonine231, pThreonine181). Put plainly: LPS-induced tau phosphorylation in postmortem human hippocampal slices. It counts as cell-based. Particulars: 1 nM compound, 1 hour.
Procedure: The three phosphoepitopes of tau were detected in immunoprecipitates using specific antibodies using Western blots (WB).
The slices are carefully separated in 10 ml of oxygenated ice-cold dissection medium with two pairs of fine forceps and gentle shaking.
The reaction was terminated by diluting with 1.5 ml of ice-cold 1 mM EDTA-containing Ca^2+-free Kreb's-Ringer and centrifuged for 10 minutes at 15,000×g (4° C.).
After removal of the supernatant, the slices were homogenized to prepare post-mitochondrial (P2) fraction.
The anti-tau immunocomplexes were enriched by incubation with 50 μl of protein A/G-conjugated agarose beads at 4° C. and centrifugation.

Regarding `CN1CCC2(CC1)NCC(=O)N2Cc1ccccc1` [Compound C0105], the “Reduction of affinity of the Aβ42-α7nAChR interaction” value in [1] (FIG. 27: postmortem tissue and SK-N-MC cells) is on record as 1,000-10,000 fold. Also, the “Reduction of Aβ42 binding affinity for α7nAChR” value in [1] (postmortem control tissue, biotinylated synaptic membranes, n=11) is listed as 1000 fold. Moreover, the Kd in experiment [1] (read-out: Aβ42 binding affinity for α7nAChR after Compound C0105 incubation, postmortem control tissue) was determined as 16 nM. Further, in the experiment on FLNA-α7nAChR association, the “Aβ42-induced increase in FLNA-α7nAChR association” value is “reduced the Aβ42-induced increase in FLNA-α7nAChR association at 0.1, 1 and 10 nM”. Moreover, in the experiment with NMDAR [2], the “Aβ42-induced impairment in NMDAR function (calcium influx after NMDA and glycine)” value was “completely prevented by 1 and 10 nM”. In [3], the “Aβ42-induced reduction of K+-evoked calcium influx” value was “completely reversed by 1 and 10 nM”. On TLR4-FLNA complex, the “Aβ42-induced increase in FLNA association with TLR4” value was “reduced Aβ42-induced increases in FLNA associations with both α7nAChR and TLR4”. Further, the “Aβ42-induced reduction in calcium influx after PNU282987” value in the experiment with α7nAChR is listed as “normalized”. In addition, in the experiment with NMDAR [4], the “Aβ42-induced NMDAR dysfunction (calcium influx after NMDA and glycine)” value was “restored the Aβ42-induced NMDAR dysfunction”. Besides, in the experiment on NFT and Aβ42 aggregates, the “Amyloid deposits (IHC, FCX and HP)” value was “prevents”; the “NFT formation (IHC, FCX and HP)” value is “prevents”. The Aβ42-induced tau phosphorylation result in experiment [5] is “inhibits tau phosphorylation”. Moreover, in experiment [6], the LPS-induced tau phosphorylation entry is reported as “reduces LPS-induced tau phosphorylation”.
